Measured values from patent US11000518B2, “Use of combination of VEGFR inhibitor and PARP inhibitor in preparation of medicament for treating gastric cancer” (Jiangsu Hengrui Medicine Co., Ltd., priority 2016, dated 2021).
Structures can show the parent of a compound that is named as a salt.

Tests used:
[1] = test system: human gastric cancer PDX model STO #069; assay: Efficacy on subcutaneous implantation tumor of human gastric cancer PDX model STO #069 tumor-bearing nude mice; assay type: in vivo, BALB/c nude mice
Description: Efficacy of the Composition of the Present Invention on the Subcutaneous Implantation Tumor of Human Gastric Cancer PDX Model STO #069 Tumor-Bearing Nude Mice
Test animals: BALB/c nude mice, 6-7 weeks old, female, purchased from Beijing Vital River Laboratory Animal Technology Co., Ltd., with laboratory animals use license No.: SCXK (Shanghai) 2015-0022 and animal certificate No.: 11400700166108, feeding condition: SPF grade.
Control group: solvent group.
Compound A: compound A (100 mg) was weighed, added with 0.5% carboxymethylcellulose solution (10 mL), vortex-mixed or ultrasonic-mixed until the solution was clear, and stored at 4° C., and the dose volume was 5 mL/kg;
Compound B: compound B (540 mg) was weighed and dissolved in purified water (31 mL), then added with 0.2% Tween 80 (0.18 mL) and 10% PEG 400 (9.0 mL), vortex-mixed until the solution was clear, followed by adding purified water to a solution volume of 90 mL and storing at 4° C., and the dose volume was 5 mL/kg;
Cisplatin: cisplatin (3 mg) was weighed and dissolved in normal saline (6.0 mL), the concentration of the solution was 0.5 mg/mL, and the solution was prepared to a total of 6.0 mL, stored at 4° C., and filtrated with a 0.22 μm Millipore Millex® membrane before each use;
Paclitaxel: paclitaxel (6 mg/mL, 1.5 mL) was formulated into a solution (1.5 mg/mL) with normal saline (6.0 mL) and stored at 4° C., which was freshly formulated before each use.
After the tumor grew to 600-700 mm^3, it was passaged in the nude mice, which were defined as passage 0 (P0); after implantation of tumor passage 0 (P0), the mice were defined as passage 1 (P1); the passage was thus defined according to the order continuously implanted in nude mice; the next passage generated from FP5 was defined as FP6, and so on; and the FP6 tumor tissue was used for this study.
(1) Tumor implantation: the STO #069 FP6 tumor tissue (which was pathologically diagnosed as gastric poorly differentiated adenocarcinoma) was cut into small pieces (˜30 mm^3), and implanted subcutaneously into the right side of the nude mice. After the mean tumor size was close to 150-250 mm^3, the mice were grouped and treated, a total of 7 groups, each group of 6 tumor-bearing mice.
(2) Observation and recording: the tumor volume was measured 2-3 times per week, the mice were weighed, and the data were recorded.
The tumor volume was measured twice a week with a caliper and measured in two dimensions, the unit is mm^3;
V=½×a×b^2, wherein a and b represented length and width, respectively.
T/C (%)=(T−T0)/(C−C0)×100%, wherein T and C represented the tumor volumes of the administration group and the solvent group at the end of the experiment, respectively; and T0 and C0 represented the tumor volumes of the administration group and the solvent group at the start of the experiment, respectively.
The endpoint of the experiment: The endpoint of the efficacy study was set to 21 days. If the tumor volume>2000 mm^3, or if a nude mouse lost more than 20% of its weight or was very ill and cannot get enough food or water, the nude mouse would be removed from the experimental group and euthanized.

[2] = test system: advanced prostate cancer patients with DNA repair gene mutations; details: phase II clinical trial; cited from earlier work
[3] = D 21, compound A 50 mg/kg PO QD × 21, compound B 30 mg/kg PO BID × 21, cisplatin 5 mg/kg IP QW × 3, paclitaxel 15 mg/kg IP QW × 3

Row | Structure (SMILES) | Partial regression ([1]; 6 animals per group, same doses as TGI column) | Mean tumor volume (mm^3) (Mean ± SEM) D 0 ([1]; D 0 = first administration time (baseline), STO#069 nude mice, n = 6) | % T/C D 21 [1, 3] [%] | % tumor growth inhibition (TGI) D 21 [1, 3] [%] | Mean tumor volume (mm^3) (Mean ± SEM) D 21 [1, 3] | tumor inhibition rate ([1]; Day 21 of administration, compound A 50 mg/kg QD×21, compound B 30 mg/kg BID×21, cisplatin 5 mg/kg QW×3, paclitaxel 15 mg/kg QW×3) [%] | response [2] [%]
1 | N#CC1(c2ccc(NC(=O)c3cccnc3NCc3ccncc3)cc2)CCCC1 [Compound A, Apatinib mesylate] | 0 | 185.4 ± 17.0 | 44.68 | 55.32 | 465.9 ± 17.0 | 55.32 | 
2 | O=C(c1cc(Cc2n[nH]c(=O)c3ccccc23)ccc1F)N1CCN(C(=O)C2CC2)CC1 [Olaparib] |  |  |  |  |  |  | 88
